Results on 2 molecules are retold here after patent US20230085307A1, “PYRIDAZINONE COMPOUND AND HERBICIDE” (NISSAN CHEMICAL CORPORATION, priority 2019, published 2023).

Experiment [1] concerns oval-leafed pondweed. Kind of experiment: Test Example 2: herbicidal activity, application during weed generation under submerged conditions (Table 17, symbol C). Type of experiment: in vivo, oval-leafed pondweed (Monochoria vaginalis). Put shortly: (§1)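 In this pot test, flooded alluvial soil (water depth 4 cm) holds all three species sown as a mixture. Once seedlings have one to two leaves, the compound's emulsion, thinned with water to the intended dose, is poured on the water; grading follows after three weeks on the earlier criteria.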

Experiment [2] concerns green foxtail. The experiment is described as follows: Test Example 5: herbicidal effect by foliage application, plastic box (Table 20, symbol G). Type of experiment: in vivo, green foxtail (Setaria viridis). The conditions noted are these: foliage application, 320 g/ha, three weeks after application. The method, boiled down:
(§2)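 Post-emergence foliar test in sterilized diluvial soil. Compound applied as water-diluted emulsion at a predetermined rate to 14-day-old plants; evaluation at three weeks.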

Experiment [3] has as its system Chinese sprangletop. The experiment is described as follows: Test Example 3: herbicidal effect by foliage application, Wagner pot (Table 18, symbol D). The experiment is classed as in vivo, chinese sprangletop (Leptochloa chinensis). Put shortly: (§3)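 Plants were sown in alluvial soil held under 0.1–0.5 cm standing water and grown 14 days in a greenhouse at 25–30 °C. An emulsifiable formulation, water-diluted to the set dose, was then sprayed onto the foliage, and effects were scored three weeks later using previously defined criteria.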

Experiment [4] has as its system Japanese bulrush. The experiment is described as follows: Test Example 2: herbicidal activity, application during weed generation under submerged conditions (Table 17, symbol B). The experiment is classed as in vivo, Japanese bulrush (Schoenoplectus juncoides). Put shortly: as §1
Experiment [5] deals with rice flat sedge. The experiment is described as follows: Test Example 3: herbicidal effect by foliage application, Wagner pot (Table 18, symbol E). Type of experiment: in vivo, rice flat sedge (Cyperus iria). The method, boiled down: as §3
In experiment [6] the test system is southern crabgrass. Kind of experiment: Test Example 5: herbicidal effect by foliage application, plastic box (Table 20, symbol F). The experiment is classed as in vivo, southern crabgrass (Digitaria ciliaris). The conditions noted are these: foliage application, 320 g/ha, three weeks after application. Put shortly:
as §2

Experiment [7] concerns late watergrass. The experiment is described as follows: Test Example 2: herbicidal activity, application during weed generation under submerged conditions (Table 17, symbol A). Type of experiment: in vivo, late watergrass (Echinochloa oryzicola). Put shortly: as §1
Experiment [8] relates to oval-leafed pondweed. Kind of experiment: Test Example 1: herbicidal activity, application before weed generation under submerged conditions (Table 16, symbol C). The experiment is classed as in vivo, oval-leafed pondweed (Monochoria vaginalis). Put shortly:
(§4)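 Alluvial soil was flooded to 4 cm depth, weed seeds were sown mixed and 2.5-leaf rice seedlings were transplanted. On sowing day, the compound's emulsion, diluted in water to a set dose, was applied to the water surface. Plants grew at 25–30 °C and were scored 0–5 after three weeks.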

Experiment [9] has as its system barnyard grass. Kind of experiment: Test Example 5: herbicidal effect by foliage application, plastic box (Table 20, symbol H). The note with it: foliage application, 320 g/ha, three weeks after application. Type of experiment: in vivo, barnyard grass (Echinochloa crus-galli). Put shortly:
as §2

Experiment [10] concerns Japanese bulrush. The experiment is described as follows: Test Example 1: herbicidal activity, application before weed generation under submerged conditions (Table 16, symbol B). The experiment is classed as in vivo, Japanese bulrush (Schoenoplectus juncoides). The method, boiled down:
as §4

Experiment [11] relates to lambsquarters. The experiment is described as follows: Test Example 5: herbicidal effect by foliage application, plastic box (Table 20, symbol O). Type of experiment: in vivo, lambsquarters (Chenopodium album). The conditions noted are these: foliage application, 320 g/ha, three weeks after application. Put shortly: as §2
In experiment [12] the test system is barnyard grass. Kind of experiment: Test Example 3: herbicidal effect by foliage application, Wagner pot (Table 18, symbol H). Type of experiment: in vivo, barnyard grass (Echinochloa crus-galli). The method, boiled down: as §3
In experiment [13] the test system is velvetleaf. The experiment is described as follows: Test Example 5: herbicidal effect by foliage application, plastic box (Table 20, symbol M). The note with it: foliage application, 320 g/ha, three weeks after application. Type of experiment: in vivo, velvetleaf (Abutilon theophrasti). Put shortly:
as §2

The test system of experiment [14] is late watergrass. The experiment is described as follows: Test Example 1: herbicidal activity, application before weed generation under submerged conditions (Table 16, symbol A). Type of experiment: in vivo, late watergrass (Echinochloa oryzicola). The method, boiled down: as §4
[15] abbreviates: AAH 320 g/ha, application during weed generation, submerged conditions.
Where [16] appears, read: amount of applied herbicide 320 g/ha.
Setting [17] is: application during weed generation under submerged conditions, amount of applied herbicide 438 g/ha.
[18] abbreviates: amount of applied herbicide 438 g/ha.

With `Cc1nn(C)c(=O)c(-c2c(-c3ccc(OC(F)(F)F)cc3)sc3cc(Cl)c(Cl)cc23)c1O` [5-107], the “herbicidal effect rating, C: oval-leafed pondweed” value in experiment [1] (setting [15]) is 3 (Herbicidal rate of 40% or more and less than 70%). The “herbicidal effect on green foxtail (G)” value in [2] is 2 (Herbicidal rate of 20% or more and less than 40%). The “herbicidal effect on Chinese sprangletop (D)” value in [3] (320 g/ha) was 0 (Herbicidal rate of 5% or less (almost no effect)). Also, in [4] (setting [15]), the “herbicidal effect rating, B: Japanese bulrush” value was 3 (Herbicidal rate of 40% or more and less than 70%). For the same molecule, the “herbicidal effect on rice flat sedge (E)” value in experiment [5] (320 g/ha) is listed as 0 (Herbicidal rate of 5% or less (almost no effect)). Further, the “herbicidal effect on southern crabgrass (F)” value in [6] was 2 (Herbicidal rate of 20% or more and less than 40%). The “herbicidal effect rating, A: late watergrass” value in [7] (setting [15]) is 3 (Herbicidal rate of 40% or more and less than 70%). The “Herbicidal effect, C: oval-leafed pondweed” value in [8] (setting [16]) is given as 0 (Herbicidal rate of 5% or less (almost no effect)). In addition, the “herbicidal effect on barnyard grass (H)” value in [9] was 3 (Herbicidal rate of 40% or more and less than 70%); in experiment [12] (320 g/ha), 3 (Herbicidal rate of 40% or more and less than 70%). For the same molecule, the “Herbicidal effect, B: Japanese bulrush” value in [10] (setting [16]) is 0 (Herbicidal rate of 5% or less (almost no effect)). In addition, the “herbicidal effect on lambsquarters (O)” value in experiment [11] was 4 (Herbicidal rate of 70% or more and less than 90%). For the same molecule, the “herbicidal effect on velvetleaf (M)” value in experiment [13] was 3 (Herbicidal rate of 40% or more and less than 70%). Also, the “Herbicidal effect, A: late watergrass” value in [14] (setting [16]) is 3 (Herbicidal rate of 40% or more and less than 70%).
For the molecule `CCCC(=O)Oc1c(C)nn(C)c(=O)c1-c1c(-c2ccc(SC)cc2)oc2ccc(C)cc12` [9-056], in [1] (setting [17]), the “herbicidal effect grade, C: oval-leafed pondweed” value was 4 (Herbicidal rate of 70% or more and less than 90%). Moreover, in experiment [3] (setting [18]), the “Herbicidal effect on D (Chinese sprangletop), foliage application” value is 3 (Herbicidal rate of 40% or more and less than 70%). Besides, in experiment [4] (setting [17]), the “herbicidal effect grade, B: Japanese bulrush” value is 3 (Herbicidal rate of 40% or more and less than 70%). The “Herbicidal effect on E (rice flat sedge), foliage application” value in [5] (setting [18]) was 4 (Herbicidal rate of 70% or more and less than 90%). Further, the “herbicidal effect grade, A: late watergrass” value in [7] (setting [17]) is 3 (Herbicidal rate of 40% or more and less than 70%). In addition, the “Herbicidal effect, C: oval-leafed pondweed” value in experiment [8] (setting [18]) was 4 (Herbicidal rate of 70% or more and less than 90%). Besides, in [10] (setting [18]), the “Herbicidal effect, B: Japanese bulrush” value is 4 (Herbicidal rate of 70% or more and less than 90%). Also, the “Herbicidal effect on H (barnyard grass), foliage application” value in experiment [12] (setting [18]) was 5 (Herbicidal rate of 90% or more (almost completely withered)). In experiment [14] (setting [18]), the “Herbicidal effect, A: late watergrass” value is listed as 5 (Herbicidal rate of 90% or more (almost completely withered)).
